pEC50: −log10 of the molar value. Structures can show the parent of a compound that is named as a salt. Where two headings read alike, the source gives them in different places.
How the values were obtained:
human TRPM8 = target: T1, human TRPM8 (Homo sapiens, UniProt Q7Z2W7); assay: TRPM8 Protocol-FLIPR Assay (intracellular Ca2+ in transfected HEK-293 cells); format: cell-based; settings: for EC50 values compared with Comp 4: comparison with the EC50 value of Comp 4
T1 construct: expressed in transfected cells; host or cells: HEK-293
Procedure: To determine whether TRPM8 is activated, the intracellular calcium ion (Ca^2+) level was measured from transfected cells with the TRPM8 receptor sequence (SEQ ID NO: 1). HEK-293 (human embryonic kidney) cells stably transfected with human TRPM8 were grown in 15 mL growth medium (high glucose DMEM (Dulbecco's Modification of Eagle's Medium) supplemented with 10% FBS (fetal bovine serum), 100 μg/mL penicillin/streptomycin, 5 μg/mL blasticindin, and 100 μg/mL zeocin) in a 75 cm^2 flask for 3 days at 37° C. in a mammalian cell culture incubator (Forma Scientific Model 3110, Marietta, Ohio) set at 5% CO2. Cells were detached with addition of 2 mL of trypsin-EDTA buffer (GIBCO® 25200, Invitrogen, Grand Island, N.Y.) for about 2-3 min. Trypsin was inactivated by addition of 8 mL growth medium. Cells were transferred to a 50 mL tube and centrifuged at 850 rpm for 3 minutes to remove medium. After centrifugation, a pellet of cells was formed in the bottom of the tube separating them from the supernatant solution. The supernatant was discarded and the cell pellet was suspended in 1 mL of fresh growth medium to which 5 μL (12.5 μg) of Fluo-4 AM (Molecular Probes, Inc., Eugene, Oreg.) calcium indicator was added and incubated for 30 min with gentle shaking. Fluo-4 AM is a fluorescent dye used for quantifying cellular Ca^2+ concentrations in the 100 nM to 1 μM range. At the end of 30 minutes, 45 mL of assay buffer (1×HBSS (Hank's Balanced Salt Solution), 20 mM HEPES (4-(2-Hydroxyethyl)-1-piperazineethanesulfonic acid)) was added to wash cells and the resulting mixture was then centrifuged at 850 rpm for 3 minutes at 20° C. to remove excess buffer and Fluo-4 AM calcium indicator.
The pelleted cells were re-suspended in 10 mL assay buffer and 90 μL aliquots (50,000 cells) per well delivered to a 96-well assay plate containing 10 μL of test compounds (1 mM in assay buffer, final concentration 100 μM) or buffer control and incubated at room temperature for 30 minutes. After 30 minutes, a plate (Falcon 353219, Corning Corning N.Y.) was placed into a fluorometric imaging plate reader (FLIPR384 from Molecular Devices, Sunnyvale, Calif.) and basal fluorescence recorded (excitation wave length 488 nm and emission wave length 510 nm). Then 20 μL of 100 mM of TRPM8 agonist WS5 coolant in the assay buffer was added and fluorescence recorded. For determining the direct effect of test compounds on TRPM8, fluorescence was measured immediately after addition of each compound. Additional discussion of the FLIPR method can be found in Smart et al., Characterization using FLIPR of human vanilloid VR1 receptor pharmacology, European Journal of Pharmacology 417, 51-58 (2001) and Liu et al., Development and validation of a platelet calcium flux assay using a fluorescent imaging plate reader, Analytical Biochemistry 357, 216-224 (2006).
The magnitude of the fluorescence of the active-treated cells was compared to the magnitude of the fluorescence from a benchmark agonist (WS-5), as described above. The percentage of fluorescence as a function of active dose was plotted and a sigmoidal curve was generated. Curve fitting from this dose-response curve yielded the value for TRPM8 EC50 in μM found in TABLE 8.
TRPM8 activation was determined by measuring intracellular calcium ion (Ca^2+) level from transfected cells with the TRPM8 receptor gene, as described in EXAMPLE 12, the results of which are shown in TABLE 8. EC50 values are provided in column 3 of TABLE 8, which measured the concentration of activating compound needed to […]. […]

[1] = concentration where the cooling effect could be clearly recognized; cited from earlier work
[2] = HEK-293 cells stably transfected with human TRPM8, fluorescence compared to benchmark agonist WS-5, dose-response curve fit, read-out: TRPM8 Activity EC50
[3] = less than about 1 μM, 0.6 μM, or the EC50 value of Comp 3, read-out: EC50 values

T1 sequence (Q7Z2W7 whole entry): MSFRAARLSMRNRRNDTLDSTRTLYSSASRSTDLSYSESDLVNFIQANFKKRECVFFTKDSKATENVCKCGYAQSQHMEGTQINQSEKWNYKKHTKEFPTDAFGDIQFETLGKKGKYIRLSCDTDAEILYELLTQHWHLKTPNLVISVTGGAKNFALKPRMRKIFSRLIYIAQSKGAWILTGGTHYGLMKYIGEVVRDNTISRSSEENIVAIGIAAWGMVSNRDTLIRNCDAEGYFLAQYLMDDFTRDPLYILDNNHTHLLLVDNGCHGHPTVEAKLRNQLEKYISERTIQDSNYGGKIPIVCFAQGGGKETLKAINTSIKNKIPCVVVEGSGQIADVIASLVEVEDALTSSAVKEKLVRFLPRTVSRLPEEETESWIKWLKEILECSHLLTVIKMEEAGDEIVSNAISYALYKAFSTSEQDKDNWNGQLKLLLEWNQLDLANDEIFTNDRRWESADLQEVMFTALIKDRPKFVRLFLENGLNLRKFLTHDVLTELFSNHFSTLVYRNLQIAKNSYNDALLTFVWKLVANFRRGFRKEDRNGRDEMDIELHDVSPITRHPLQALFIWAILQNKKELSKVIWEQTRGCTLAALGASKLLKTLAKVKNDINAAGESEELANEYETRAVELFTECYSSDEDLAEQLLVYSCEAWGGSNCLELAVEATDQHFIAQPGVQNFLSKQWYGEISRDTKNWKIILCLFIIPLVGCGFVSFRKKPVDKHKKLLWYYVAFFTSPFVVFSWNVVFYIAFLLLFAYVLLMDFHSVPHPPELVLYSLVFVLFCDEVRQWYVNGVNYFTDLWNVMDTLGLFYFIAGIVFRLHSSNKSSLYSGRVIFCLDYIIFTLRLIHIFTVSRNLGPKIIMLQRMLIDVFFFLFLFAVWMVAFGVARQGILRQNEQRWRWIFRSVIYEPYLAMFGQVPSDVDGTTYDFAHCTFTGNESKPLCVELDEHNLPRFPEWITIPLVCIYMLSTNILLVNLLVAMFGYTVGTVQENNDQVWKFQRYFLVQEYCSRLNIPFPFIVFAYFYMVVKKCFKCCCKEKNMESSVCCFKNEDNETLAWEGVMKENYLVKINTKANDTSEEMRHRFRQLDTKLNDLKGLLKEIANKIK

Row | SMILES | pEC50 (human TRPM8; [2]) | pEC50 (human TRPM8; [3]) | cooling threshold [1] | EC50 values compared with Comp 4 (human TRPM8)
1 | N[C@H](CNC(=O)c1ccccc1)c1ccccc1 [Comp 1, reference compound] | < 5.00 |  |  | 
2 | Cc1ccc(C(C)C)c(OC(=O)C[C@@H](N)c2ccccc2)c1 [Comp 2, reference compound] | 4.92 |  |  | 
3 | CC(C)[C@@H]1CC[C@@H](C)C[C@H]1C(=O)Nc1ccc(CC#N)cc1 [Comp 3, reference compound] | 6.22 |  |  | 
4 | CC(C)[C@@H]1CC[C@@H](C)C[C@H]1C(=O)NC[C@@H](NC(=O)[C@H](C)N)c1ccccc1 [Comp 4, reference compound] | 8.05 |  |  | 
5 | CC(C)[C@@H]1CC[C@@H](C)C[C@@H]1O [Compound 1-neomenthol, 1-neomenthol] |  |  | about 3,000 ppb | 
6 | NCC(=O)N[C@H](CNC(=O)c1ccccc1)c1ccccc1 [Compound 1a, (S)-2-((2-benzamido-1-phenylethyl)amino)-2-oxoethan-1-aminium chloride] | 6.18 | > 6.00 |  | 
7 | C[C@@H](N)C(=O)N[C@H](CNC(=O)c1ccccc1)c1ccccc1 [Compound 1c, (R)-1-(((S)-2-benzamido-1-phenylethyl)amino)-1-oxopropan-2-aminium chloride] | 6.24 | > 6.00 |  | 
8 | C[C@@H](N)C(=O)N[C@H](CNC(=O)c1cccnc1)c1ccccc1 [Compound 2c, (R)-1-(((S)-2-(nicotinamido)-1-phenylethyl)amino)-1-oxopropan-2-aminium chloride] | 4.55 |  |  | 
9 | Cc1ccc(C(C)C)c(C(=O)NC[C@@H](NC(=O)CN)c2ccccc2)c1.Cl [Compound 6a] |  |  |  | about the same or less than the EC50 value of Comp 4
10 | CC(C)[C@@H]1CC[C@@H](C)C[C@H]1O [L-menthol] |  |  | about 800 ppb | 
11 | CC(C)[C@@H]1CC[C@@H](C)C[C@@H]1O [d-neomenthol] |  |  | about 25,000 ppb | 

Now from value to compound, other results behind:

Row | pEC50 (human TRPM8; [2]) | pEC50 (human TRPM8; [3]) | SMILES | cooling threshold [1] | EC50 values compared with Comp 4 (human TRPM8)
12 | 5.92 |  | CC(C)=CCC/C(C)=C/C(=O)NC[C@@H](NC(=O)CN)c1ccccc1 [Compound 4a, (S,E)-2-((2-(3,7-dimethylocta-2,6-dienamido)-1-phenylethyl)amino-2-oxoethan-1-aminium chloride] |  | 
13 | 5.84 |  | CC(C)=CCC/C(C)=C/C(=O)NC[C@@H](NC(=O)[C@@H](C)N)c1ccccc1 [Compound 4b, (R)-1-(((S)-2-((E)-3,7-dimethylocta-2,6-dienamido)-1-phenylethyl)amino)-1-oxopropan-2-aminium chloride] |  | 
14 | 8.72 | > 6.00 | Cc1ccc(C(C)C)c(C(=O)NC[C@@H](NC(=O)CN)c2ccccc2)c1.Cl [Compound 6a, (S)-2-((2-(2-isopropyl-5-methylbenzamido)-1-phenylethyl)amino-2-oxoethan-1-aminium chloride] |  | 
15 | 6.81 | > 6.00 | Cc1ccc(C(C)C)c(C(=O)NC[C@@H](N)c2ccccc2)c1 [Compound 6b, (S)-2-(2-isopropyl-5-methylbenzamido)-1-phenylethan-1-aminium chloride] |  | 
16 | 8.49 | > 6.00 | Cc1ccc(C(C)C)c(C(=O)NC[C@@H](NC(=O)[C@@H](C)N)c2ccccc2)c1.Cl [Compound 6c, (R)-1-(((S)-2-(2-isopropyl-5-methylbenzamido)-1-phenylethyl)amino)-1-oxopropan-2-aminium chloride] |  | about the same or less than the EC50 value of Comp 4
17 | 8.18 | > 6.00 | Cc1ccc(C(C)C)c(C(=O)NC[C@@H](NC(=O)[C@H](C)N)c2ccccc2)c1.Cl [Compound 6d, (S)-1-(((S)-2-(2-isopropyl-5-methylbenzamido)-1-phenylethyl)amino)-1-oxopropan-2-aminium chloride] |  | about the same or less than the EC50 value of Comp 4
18 | 6.64 | > 6.00 | Cc1ccc(C(C)C)c(OC(=O)C[C@@H](NC(=O)CN)c2ccccc2)c1 [Compound 7a, (R)-2-((3-(2-isopropyl-5-methylphenoxy)-3-oxo-1-phenylpropyl)amino-2-oxoethan-1-aminium chloride] |  | 
19 | 7.22 | > 6.00 | Cc1ccc(C(C)C)c(OC(=O)C[C@@H](NC(=O)[C@@H](C)N)c2ccccc2)c1 [Compound 7b, (R)-1-(((R)-3-(2-isopropyl-5-methylphenoxy)-3-oxo-1-phenylpropyl)amino)-1-oxopropan-2-aminium chloride] |  | 
20 | 6.38 | > 6.00 | CC(C)C(C)(C(=O)OC[C@@H](NC(=O)[C@H](C)N)c1ccccc1)C(C)C [Compound 8a, (S)-2-((S)-2-aminopropanamido)-2-phenylethyl 2-isopropyl-2,3-dimethylbutanoate hydrochloride] |  | 
21 | 7.24 | > 6.00 | CC(C)C(C)(C(=O)OC[C@@H](NC(=O)[C@@H](C)N)c1ccccc1)C(C)C [Compound 8b, (S)-2-((R)-2-aminopropanamido)-2-phenylethyl 2-isopropyl-2,3-dimethylbutanoate hydrochloride] |  | 
22 | 8.11 | > 6.00 | CC(C)C(C)(C(=O)NC[C@@H](OC(=O)CN)c1ccccc1)C(C)C.Cl [Compound 10a, (S)-2-(2-isopropyl-2,3-dimethylbutanamido)-1-phenylethyl glycinate hydrochloride] |  | about the same or less than the EC50 value of Comp 4
23 | 7.77 | > 6.00 | NCC(=O)O[C@H](CNC(=O)C12CC3CC(CC(C3)C1)C2)c1ccccc1 [Compound 11a, (S)-2-((3S,5S,7S)-adamantane-1-carboxamido)-1-phenylethyl glycinate hydrochloride] |  | 

Reference: US20190330141A1, “Compositions With A Cooling Effect” (The Procter & Gamble Company, priority 2018, published 2019)
